Patent publication US6615842B1, “Methods for removing nucleophilic toxins from tobacco smoke” (Cerami Consulting Corp., priority 1998, dated 2003)

Experiment: Removal of tar from tobacco smoke measured colorimetrically
Conditions: 250 mg portions of compound as filter; smoke from one cigarette drawn through 3 ml water; read at 405 nm; compared with control cigarette
Method: The smoke from one cigarette was drawn through the filter material and then through 3 mls of distilled water using a water-pipe smoking device which was constructed from a 25 ml glass Erlenmeyer flask attached to a vacuum source with an air flow rate of approximately 35 ml/min. Three 100 microliter aliquots were removed from each flask, placed into ELISA plate wells and read in an ELISA plate reader at 405 nm. The percentage or tar removed is based on a comparison between the cigarette comprising the filter containing the test agent and an appropriate control cigarette.
The smoke from 1 of each type of filter cigarette was then drawn through 3 mls of distilled water using a water-pipe smoking device which was constructed from a small (25 ml) glass Erlenmeyer flask attached to a vacuum source with an air flow rate of approximately 35 ml/min. Three 100 microliter aliquots were removed from each flask, placed into ELISA plated wells and read in an ELISA plate reader at 405 nm.

| Compound | % TAR REMOVAL [%] |
| --- | --- |
| CCCCCCCCCC=CCC1CC(=O)OC1=O (stereo not drawn) [2-Dodecen-1-ylsuccinic anhydride] | 98.2 |
| CC1(C)CC(=O)CC(=O)C1 [(5,5-dimethyl-1,3-cyclohexanedione, 5,5-dimethyl-1,3-cyclohexanedione] | 26 |
| CC(=O)O[C@H]1C(=O)OC(=O)[C@@H]1OC(C)=O [(+)-Diacetyl-1-tartaric anhydride] | 32.1 |
| CC(C)(C)OC(=O)NCCCCCC(=O)ON1C(=O)CCC1=O [BOC-ε-aminocaproic acid-N-hydroxysuccinimide ester] | 74 |
| O=C1OC(=O)C2C3C=CC(C12)C1C(=O)OC(=O)C31 (stereo not drawn) [Bicyclo(2,2,2)oct-7-ene-2,3,5,6-tetracarboxylic dianhydride] | 98.2 |
| O=C1CN(CCN2CC(=O)OC(=O)C2)CC(=O)O1 [Ethylenediaminetetraacetic dianhydride] | 98.2 |
| O=C1c2ccccc2C(=O)C1(O)C1(O)C(=O)c2ccccc2C1=O [Hydrindantin] | 95 |
| C[C@H](NC(=O)OC(C)(C)C)C(=O)ON1C(=O)CCC1=O [N-α-t-BOC-L-alanine-N-hydroxysuccinimide ester] | 25 |
| CC(C)(C)OC(=O)N[C@@H](CCC(=O)ON1C(=O)CCC1=O)C(=O)OCc1ccccc1 [N-α-t-BOC-L-glutamic-α-benzyl ester-γ-N-hydroxysuccinimide ester] | 96.7 |
| O=C1c2ccccc2C(=O)C1(O)O [Ninhydrin] | 83 |
| O=Cc1ccccc1C=O [O-phthaldialdehyde] | 84 |
| O=CC(=O)c1ccccc1 [Phenylglyoxal] | 53 |
